# Patent US8481732B2 (Incyte Corporation, priority 2009, dated 2013)
# Target: T1, histamine H4 receptor (Homo sapiens, UniProt Q9H3N8)
# T1 construct: expressed in transfected cells; host or cells: HEK293SFM cells (membrane preparation)
# Test: H4 Membrane Binding Assay (3H-Histamine displacement)
# Conditions: membranes of recombinant HEK293SFM cells, 10 nM 3H-Histamine, 1.5 hr at room temperature
# In short: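 Radioligand is [3H]-histamine; 1000× unlabeled ligand sets nonspecific binding. Receptor source: membrane pellets from HEK293SFM cells carrying human H4 or other histamine subtypes (human H1–H3, mouse H4), in 50 mM Tris-HCl pH 7.5. Filtration through PEI-treated GF/B filters, then scintillation counting.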
row,IC50 [nM],Compound
1,51,"CC(Oc1cccc(CC(NC(=O)c2ccc3c(N4CCN(C)CC4)nc(N)nc3c2)C(=O)N(C)C)c1)c1cccc(C(F)(F)F)c1 (stereo not shown) [Example 176, 2-Amino-N-[2-(dimethylamino)-2-oxo-1-(3-{1-[3-(trifluoromethyl)phenyl]ethoxy}benzyl)ethyl]-4-(4-methylpiperazin-1-yl)quinazoline-7-carboxamide]"
2,56,"CN1CCN(c2nc(N)nc3cc(C(=O)NC(Cc4cccc(OCc5ccc(OC(F)(F)F)cc5)c4)C(=O)N(C)C)ccc23)CC1 (stereo not shown) [Example 177, 2-Amino-N-[2-(dimethylamino)-2-oxo-1-(3-{[4-(trifluoromethoxy)benzyl]oxy}benzyl)ethyl]-4-(4-methylpiperazin-1-yl)quinazoline-7-carboxamide]"
3,7.5,"COc1ccc(Oc2cccc(CNC(=O)c3ccc4c(N5CCN(C)CC5)nc(N)nc4c3)c2)cc1 [Example 178, 2-Amino-N-[3-(4-methoxyphenoxy)benzyl]-4-(4-methylpiperazin-1-yl)quinazoline-7-carboxamide]"
4,46,"COC(=O)c1ccc(Oc2cccc(CNC(=O)c3ccc4c(N5CCN(C)CC5)nc(N)nc4c3)c2)cc1 [Example 179, Methyl 4-{3-[({[2-amino-4-(4-methylpiperazin-1-yl)quinazolin-7-yl]carbonyl}amino)methyl]phenoxy}benzoate]"
5,25,"COc1ccc(C#N)c(Oc2cccc(CNC(=O)c3ccc4c(N5CCN(C)CC5)nc(N)nc4c3)c2)c1 [Example 180, 2-Amino-N-[3-(2-cyano-5-methoxyphenoxy)benzyl]-4-(4-methylpiperazin-1-yl)quinazoline-7-carboxamide]"
6,16,"CN1CCN(c2nc(N)nc3cc(C(=O)NCc4cccc(Oc5nccc6ccccc56)c4)ccc23)CC1 [Example 181, 2-Amino-N-[3-(isoquinolin-1-yloxy)benzyl]-4-(4-methylpiperazin-1-yl)quinazoline-7-carboxamide]"
7,56,"Cc1ccnc(Oc2cccc(CNC(=O)c3ccc4c(N5CCN(C)CC5)nc(N)nc4c3)c2)c1 [Example 182, 2-Amino-4-(4-methylpiperazin-1-yl)-N-{3-[(4-methylpyridin-2-yl)oxy]benzyl}quinazoline-7-carboxamide]"
8,65,"CN1CCN(c2nc(N)nc3cc(C(=O)NCc4cccc(Oc5cc(C#N)ccn5)c4)ccc23)CC1 [Example 183, 2-Amino-N-{3-[(4-cyanopyridin-2-yl)oxy]benzyl}-4-(4-methylpiperazin-1-yl)quinazoline-7-carboxamide]"
9,43,"CCOC(=O)c1cccnc1Oc1cccc(CNC(=O)c2ccc3c(N4CCN(C)CC4)nc(N)nc3c2)c1 [Example 184, Ethyl 2-{3-[({[2-amino-4-(4-methylpiperazin-1-yl)quinazolin-7-yl]carbonyl}amino)methyl]phenoxy}nicotinate]"
10,8.4,"CCOC(=O)c1sc(Oc2cccc(CNC(=O)c3ccc4c(N5CCN(C)CC5)nc(N)nc4c3)c2)nc1C [Example 185, Ethyl 2-{3-[({[2-amino-4-(4-methylpiperazin-1-yl)quinazolin-7-yl]carbonyl}amino)methyl]phenoxy}-4-methyl-1,3-thiazole-5-carboxylate]"
11,7.9,"CCOC(=O)c1cc(C)nc(Oc2cccc(CNC(=O)c3ccc4c(N5CCN(C)CC5)nc(N)nc4c3)c2)c1C#N [Example 186, Ethyl 2-{3-[({[2-amino-4-(4-methylpiperazin-1-yl)quinazolin-7-yl]carbonyl}amino)methyl]phenoxy}-3-cyano-6-methylisonicotinate]"
12,41,"Cc1cnc(C)c(Oc2cccc(CNC(=O)c3ccc4c(N5CCN(C)CC5)nc(N)nc4c3)c2)n1 [Example 187, 2-Amino-N-{3-[(3,6-dimethylpyrazin-2-yl)oxy]benzyl}-4-(4-methylpiperazin-1-yl)quinazoline-7-carboxamide]"
13,13,"CN1CCN(c2nc(N)nc3cc(C(=O)NCc4cccc(Oc5cnc6ccccc6n5)c4)ccc23)CC1 [Example 188, 2-Amino-4-(4-methylpiperazin-1-yl)-N-[3-(quinoxalin-2-yloxy)benzyl]quinazoline-7-carboxamide]"
14,6.6,"Cc1cccc(Oc2cccc(CNC(=O)c3ccc4c(N5CCN(C)CC5)nc(N)nc4c3)c2)c1C#N [Example 189, 2-Amino-N-[3-(2-cyano-3-methylphenoxy)benzyl]-4-(4-methylpiperazin-1-yl)quinazoline-7-carboxamide]"
15,11,"COc1cccc(Oc2cccc(CNC(=O)c3ccc4c(N5CCN(C)CC5)nc(N)nc4c3)c2)c1C#N [Example 190, 2-Amino-N-[3-(2-cyano-3-methoxyphenoxy)benzyl]-4-(4-methylpiperazin-1-yl)quinazoline-7-carboxamide]"
16,20,"COC(=O)c1ccccc1Oc1cccc(CNC(=O)c2ccc3c(N4CCN(C)CC4)nc(N)nc3c2)c1 [Example 191, Methyl 2-{3-[({[2-amino-4-(4-methylpiperazin-1-yl)quinazolin-7-yl]carbonyl}amino)methyl]phenoxy}benzoate]"

row,IC50 [nM],Compound
1,6.3,"CN1CCN(c2nc(N)nc3cc(C(=O)NCc4cccc(OCc5cccc(C#N)c5)c4)ccc23)CC1 [Example 192, 2-amino-N-(3-(3-cyanobenzyloxy)benzyl)-4-(4-methylpiperazin-1-yl)quinazoline-7-carboxamide]"
2,7.2,"COC(=O)c1ccc(COc2cccc(CNC(=O)c3ccc4c(N5CCN(C)CC5)nc(N)nc4c3)c2)cc1 [Example 193, Methyl 4-({3-[({[2-amino-4-(4-methylpiperazin-1-yl)quinazolin-7-yl]carbonyl}amino)methyl]phenoxy}methyl)benzoate]"
3,8.7,"COc1cc(COc2cccc(CNC(=O)c3ccc4c(N5CCN(C)CC5)nc(N)nc4c3)c2)cc(OC)c1 [Example 194, 2-Amino-N-{3-[(3,5-dimethoxybenzyl)oxy]benzyl}-4-(4-methylpiperazin-1-yl)quinazoline-7-carboxamide]"
4,3.4,"CN1CCN(c2nc(N)nc3cc(C(=O)NCc4cccc(OCc5cccc6nsnc56)c4)ccc23)CC1 [Example 195, 2-Amino-N-[3-(2,1,3-benzothiadiazol-4-ylmethoxy)benzyl]-4-(4-methylpiperazin-1-yl)quinazoline-7-carboxamide]"
5,4.4,"CC(Oc1cccc(CNC(=O)c2ccc3c(N4CCN(C)CC4)nc(N)nc3c2)c1)c1cccc(C(F)(F)F)c1 (stereo not shown) [Example 196, 2-Amino-4-(4-methylpiperazin-1-yl)-N-(3-{1-[3-(trifluoromethyl)phenyl]ethoxy}benzyl)quinazoline-7-carboxamide]"
6,7.1,"CC(NC(=O)c1ccc2c(N3CCN(C)CC3)nc(N)nc2c1)c1cccc(Oc2ccc(Cl)cc2C#N)c1 (stereo not shown) [Example 197, 2-Amino-N-{1-[3-(4-chloro-2-cyanophenoxy)phenyl]ethyl}-4-(4-methylpiperazin-1-yl)quinazoline-7-carboxamide]"
7,34,"Cc1ccc(C#N)c(Oc2cccc(C(C)NC(=O)c3ccc4c(N5CCN(C)CC5)nc(N)nc4c3)c2)n1 (stereo not shown) [Example 198, 2-Amino-N-(1-{3-[(3-cyano-6-methylpyridin-2-yl)oxy]phenyl}ethyl)-4-(4-methylpiperazin-1-yl)quinazoline-7-carboxamide]"
8,63,"CC(NC(=O)c1ccc2c(N3CCN(C)CC3)nc(N)nc2c1)c1cccc(Oc2ncccc2C#N)c1 (stereo not shown) [Example 199, 2-Amino-N-(1-{3-[(3-cyanopyridin-2-yl)oxy]phenyl}ethyl)-4-(4-methylpiperazin-1-yl)quinazoline-7-carboxamide]"
9,7.1,"COC(=O)c1cccc(COc2cccc(C(C)NC(=O)c3ccc4c(N5CCN(C)CC5)nc(N)nc4c3)c2)c1 (stereo not shown) [Example 200, Methyl 3-({3-[1-({[2-amino-4-(4-methylpiperazin-1-yl)quinazolin-7-yl]carbonyl}amino)ethyl]phenoxy}methyl)benzoate]"
10,14,"CC(NC(=O)c1ccc2c(N3CCN(C)CC3)nc(N)nc2c1)c1cccc(OCc2cccc(C#N)c2)c1 (stereo not shown) [Example 201, 2-Amino-N-(1-{3-[(3-cyanobenzyl)oxy]phenyl}ethyl)-4-(4-methylpiperazin-1-yl)quinazoline-7-carboxamide]"
11,9.2,"CN1CCN(c2nc(N)nc3cc(C(=O)NC4CCCc5ccc(OCc6cccc(C#N)c6)cc54)ccc23)CC1 (stereo not shown) [Example 202, 2-Amino-N-(7-(3-cyanobenzyloxy)-1,2,3,4-tetrahydronaphthalen-1-yl)-4-(4-methylpiperazin-1-yl)quinazoline-7-carboxamide]"
12,17,"COc1cccc(COc2ccc3c(c2)C(NC(=O)c2ccc4c(N5CCN(C)CC5)nc(N)nc4c2)CCC3)c1 (stereo not shown) [Example 203, 2-Amino-N-(7-(3-methoxybenzyloxy)-1,2,3,4-tetrahydronaphthalen-1-yl)-4-(4-methylpiperazin-1-yl)quinazoline-7-carboxamide]"
13,9.3,"COC(=O)c1cccc(COc2ccc3c(c2)C(NC(=O)c2ccc4c(N5CCN(C)CC5)nc(N)nc4c2)CCC3)c1 (stereo not shown) [Example 204, Methyl 3-((8-(2-amino-4-(4-methylpiperazin-1-yl)quinazoline-7-carboxamido)-5,6,7,8-tetrahydronaphthalen-2-yloxy)methyl)benzoate]"
14,11,"CN1CCN(c2nc(N)nc3cc(C(=O)NC4CCCc5ccc(OCc6ccc(C#N)cc6)cc54)ccc23)CC1 (stereo not shown) [Example 205, 2-Amino-N-(7-(4-cyanobenzyloxy)-1,2,3,4-tetrahydronaphthalen-1-yl)-4-(4-methylpiperazin-1-yl)quinazoline-7-carboxamide]"
15,24,"COC(=O)c1ccc(COc2ccc3c(c2)C(NC(=O)c2ccc4c(N5CCN(C)CC5)nc(N)nc4c2)CCC3)cc1 (stereo not shown) [Example 206, Methyl 4-((8-(2-amino-4-(4-methylpiperazin-1-yl)quinazoline-7-carboxamido)-5,6,7,8-tetrahydronaphthalen-2-yloxy)methyl)benzoate]"
